Measured values reported in patent US20260015360A1 (MOMA Therapeutics, Inc., priority 2023, published 2026).

Biological target: T1, biotinylated Avi-POLΘ[2-894] (Homo sapiens, UniProt O75417)
T1 construct: 1 nM biotinylated Avi-POLΘ[2-894]
Assay: ATPase assay (ADP-Glo): POLΘ-mediated ATP hydrolysis
Conditions: read-out: Biochemical ATPase ADPGlo IC50

T1 sequence (O75417 2-894 limits assumed): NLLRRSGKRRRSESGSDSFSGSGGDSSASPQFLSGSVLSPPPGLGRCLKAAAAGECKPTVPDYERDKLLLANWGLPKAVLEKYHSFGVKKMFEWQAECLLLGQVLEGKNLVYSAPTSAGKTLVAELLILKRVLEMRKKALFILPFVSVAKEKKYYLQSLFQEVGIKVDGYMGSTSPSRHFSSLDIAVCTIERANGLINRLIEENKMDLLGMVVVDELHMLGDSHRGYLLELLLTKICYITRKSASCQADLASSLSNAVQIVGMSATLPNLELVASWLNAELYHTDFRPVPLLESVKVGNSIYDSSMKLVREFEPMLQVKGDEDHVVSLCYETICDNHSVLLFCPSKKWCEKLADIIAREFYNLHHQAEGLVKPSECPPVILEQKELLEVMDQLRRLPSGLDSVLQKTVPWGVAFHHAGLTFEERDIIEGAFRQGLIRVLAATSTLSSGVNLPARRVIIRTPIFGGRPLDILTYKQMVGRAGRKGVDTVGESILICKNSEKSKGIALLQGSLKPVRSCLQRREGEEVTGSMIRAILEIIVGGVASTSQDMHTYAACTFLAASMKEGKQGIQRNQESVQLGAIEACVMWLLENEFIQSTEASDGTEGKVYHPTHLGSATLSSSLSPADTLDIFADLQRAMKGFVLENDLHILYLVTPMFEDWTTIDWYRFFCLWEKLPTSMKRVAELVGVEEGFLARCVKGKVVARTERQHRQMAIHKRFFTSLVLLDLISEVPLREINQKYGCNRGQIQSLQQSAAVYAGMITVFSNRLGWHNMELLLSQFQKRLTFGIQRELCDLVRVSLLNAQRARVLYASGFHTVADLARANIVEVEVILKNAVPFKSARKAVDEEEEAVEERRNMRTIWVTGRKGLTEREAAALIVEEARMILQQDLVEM

| IC50 | SMILES |
| --- | --- |
| 15 to 50 nM | Cc1cc(-c2c3cnccc3nn2C)c(C(=O)Nc2nc3ncc(-c4ccncc4)nc3s2)cn1 [Example 513, 6-methyl-4-(2-methyl-2H-pyrazolo[4,3-c]pyridin-3-yl)-N-(6-(pyridin-4-yl)thiazolo[4,5-b]pyrazin-2-yl)nicotinamide] |
| 150 to 900 nM | Cc1cc(N2CCC[C@H](C#N)C2)c(C(=O)Nc2nc3ncc(-c4ccncc4)cc3s2)cn1 (single isomer, unassigned) [Example 143] |
| 1 to 15 nM | COc1cnc(Cl)cc1-c1cc(C)ncc1C(=O)Nc1nc2ncc(N3CCCC3)nc2s1 [Example 484, 2′-chloro-5′-methoxy-6-methyl-N-(6-(pyrrolidin-1-yl)thiazolo[4,5-b]pyrazin-2-yl)-[4,4′-bipyridine]-3-carboxamide] |
| 1 to 15 nM | COc1cnc(Cl)cc1-c1cc(C)ncc1C(=O)Nc1nc2ncc(N3CCC(N(C)C)CC3)nc2s1 [Example 469, 2′-chloro-N-(6-(4-(dimethylamino)piperidin-1-yl)thiazolo[4,5-b]pyrazin-2-yl)-5′-methoxy-6-methyl-[4,4′-bipyridine]-3-carboxamide] |
| > 900 nM | CC(=O)N1CC2(C1)CN(c1cc(C)ncc1C(=O)Nc1nc3ncc(-c4ccncc4)cc3s1)C2 [Example 202] |
| 150 to 900 nM | Cc1cc(C2=CCN(C(=O)OC(C)(C)C)CC2)c(C(=O)Nc2nc3ncc(-c4ccncc4)nc3s2)cn1 [Example 139] |
| 150 to 900 nM | Cc1cc(N2CCN(c3nccs3)CC2)c(C(=O)Nc2nc3ncc(-c4ccncc4)cc3s2)cn1 [Example 159, 6-methyl-N-(6-(pyridin-4-yl)thiazolo[4,5-b]pyridin-2-yl)-4-(4-(thiazol-2-yl)piperazin-1-yl)nicotinamide] |
| 1 to 15 nM | COc1ccc(C#N)cc1-c1cc(C)ncc1C(=O)Nc1nc2ncc(N3CCC(O)(C(F)F)CC3)nc2s1 (single isomer, unassigned) [Example 418, 4-(5-cyano-2-methoxyphenyl)-N-(6-(4-(difluoromethyl)-4-hydroxypiperidin-1-yl)thiazolo[4,5-b]pyrazin-2-yl)-6-methylnicotinamide] |
| 15 to 50 nM | COc1cnc(Cl)cc1-c1cc(C)ncc1C(=O)Nc1nc2ncc(N3CCO[C@H]4CCC[C@@H]43)nc2s1 [Example 393, 2′-chloro-N-(6-((4aS,7aS)-hexahydrocyclopenta[b][1,4]oxazin-4(4aH)-yl)thiazolo[4,5-b]pyrazin-2-yl)-5′-methoxy-6-methyl-[4,4′-bipyridine]-3-carboxamide] |
| 15 to 50 nM | COc1cnc(Cl)cc1-c1cc(C)ncc1C(=O)Nc1nc2ncc(N3CCO[C@@H]4CCC[C@@H]43)nc2s1 [Example 395, 2′-chloro-N-(6-((4aS,7aR)-hexahydrocyclopenta[b][1,4]oxazin-4(4aH)-yl)thiazolo[4,5-b]pyrazin-2-yl)-5′-methoxy-6-methyl-[4,4′-bipyridine]-3-carboxamide] |

The remaining lines, values behind:

| SMILES | IC50 |
| --- | --- |
| COc1cnc(Cl)cc1-c1cc(C)ncc1C(=O)Nc1nc2ncc(N3[C@H](C)COC[C@H]3C)nc2s1 [Example 423, 2′-chloro-N-(6-((3R,5R)-3,5-dimethylmorpholino)thiazolo [4,5-b]pyrazin-2-yl)-5′-methoxy-6-methyl-[4,4′-bipyridine]-3-carboxamide] | 1 to 15 nM |
| COc1cnc(Cl)cc1-c1cc(C)ncc1C(=O)Nc1nc2ncc(N3CCOC[C@H]3C(F)(F)F)nc2s1 [Example 416, (S)-2′-chloro-5′-methoxy-6-methyl-N-(6-(3-(trifluoromethyl)morpholino)thiazolo[4,5-b]pyrazin-2-yl)-[4,4′-bipyridine]-3-carboxamide] | 15 to 50 nM |
| COc1cnc(Cl)cc1-c1cc(C)ncc1C(=O)Nc1nc2ncc(N3[C@H](C)COC[C@@H]3C)nc2s1 [Example 404, 2′-chloro-N-(6-((3R,5S)-3,5-dimethylmorpholino)thiazolo [4,5-b]pyrazin-2-yl)-5′-methoxy-6-methyl-[4,4′-bipyridine]-3-carboxamide] | 15 to 50 nM |
| COc1cnc(Cl)cc1-c1cc(Oc2cccc(NC(=O)OC(C)(C)C)c2)ncc1C(=O)Nc1nn2cc(C3CC3)nc2s1 [Example 495, tert-butyl (3-((2′-chloro-5-((6-cyclopropylimidazo[2,1-b][1,3,4]thiadiazol-2-yl)carbamoyl)-5′-methoxy-[4,4′-bipyridin]-2-yl)oxy)phenyl)carbamate] | 150 to 900 nM |
| COc1cnc(Cl)cc1-c1cc(C)ncc1C(=O)Nc1nc2ncc(N3CCOC(C)C3C)nc2s1 (stereo not drawn) [Example 425, 2′-chloro-N-(6-(2,3-dimethylmorpholino)thiazolo [4,5-b]pyrazin-2-yl)-5′-methoxy-6-methyl-[4,4′-bipyridine]-3-carboxamide] | 1 to 15 nM |
| COc1cnc(Cl)cc1-c1cc(C)ncc1C(=O)Nc1nc2ncc(C3CCOC3)nc2s1 (single isomer, unassigned) [Example 473, (R or S)-2′-chloro-5′-methoxy-6-methyl-N-(6-(tetrahydrofuran-3-yl)thiazolo[4,5-b]pyrazin-2-yl)-[4,4′-bipyridine]-3-carboxamide] | 15 to 50 nM |
| COc1cnc(Cl)cc1-c1cc(C)ncc1C(=O)Nc1nn2cc(C(=O)N[C@H]3C[C@](O)(C(F)(F)F)C3)nc2s1 [Example 32, 2-(2′-chloro-5′-methoxy-6-methyl-[4,4′-bipyridine]-3-carboxamido)-N-((1s,3s)-3-hydroxy-3-(trifluoromethyl)cyclobutyl)imidazo[2,1-b][1,3,4]thiadiazole-6-carboxamide] | > 900 nM |
| COc1cnc(Cl)cc1-c1cc(C)ncc1C(=O)Nc1nc2ncc(C3(O)CCOCC3)nc2s1 [Example 390, 2′-chloro-N-(6-(4-hydroxytetrahydro-2H-pyran-4-yl)thiazolo[4,5-b]pyrazin-2-yl)-5′-methoxy-6-methyl-[4,4′-bipyridine]-3-carboxamide] | 15 to 50 nM |
| COc1ccccc1-c1cc(C)ncc1C(=O)Nc1nn2cc(C3CC3)nc2s1 [Example 168, N-(6-cyclopropylimi-dazo[2,1-b][1,3,4]thiadiazol-2-yl)-4-(2-methoxyphenyl)-6-methylnicotinamide] | 150 to 900 nM |
| COc1ccccc1-c1cc(C)ncc1C(=O)Nc1nc2ccc(Br)cc2o1 [Example 54, N-(6-Bromobenzo[d]oxazol-2-y1)-4-(2-methoxyphenyl)-6-methylnicotinamide] | 15 to 50 nM |
| COc1cnc(Cl)cc1-c1cc(C)ncc1C(=O)Nc1nc2ncc(N3C[C@@H](C)O[C@@H](C)C3)nc2s1 [Example 437, 2′-chloro-N-(6-((2S,6R)-2,6-dimethylmorpholino)thiazolo [4,5-b]pyrazin-2-yl)-5′-methoxy-6-methyl-[4,4′-bipyridine]-3-carboxamide] | 1 to 15 nM |
| COc1cnc(Cl)cc1-c1cc(Oc2cc(N)cc(Cl)c2)ncc1C(=O)Nc1nn2cc(C3CC3)nc2s1 [Example 493, 6-(3-amino-5-chlorophenoxy)-2′-chloro-N-(6-cyclopropylimidazo[2,1-b][1,3,4]thiadiazol-2-yl)-5′-methoxy-[4,4′-bipyridine]-3-carboxamide] | 50 to 150 nM |
| COc1ccc(C#N)cc1-c1cc(C)ncc1C(=O)Nc1nn2cc(C(=O)N(C)C)nc2s1 [Example 316, 2-(4-(5-cyano-2-methoxyphenyl)-6-methylnicotinamido)-N,N-dimethylimidazo[2,1-b][1,3,4]thiadiazole-6-carboxamide] | 15 to 50 nM |
| COc1cnc(Cl)cc1-c1cc(C)ncc1C(=O)Nc1nn2cc(C3CCC(CO)C3)nc2s1 (racemic) [Example 270] | 15 to 50 nM |
